Legend:
[1] = Caco-2 Permeability Assay; type: in vitro ADME; conditions: human, apparent permeability A to B, compound at 10 μM, apical buffer pH 6.0, basolateral buffer pH 7.4, read-out: Papp (cm/sec, *10^−6)
Source text: Caco-2 Permeability Assay Caco-2 cells are purchased from Cell Culture Services as frozen instant cells at a concentration of 1*10^7 cells/vial. DMEM+glutamax-I culture media is purchased from Gibco (10569). Fetal bovine serum (FBS) is purchased from HyClone (SH30396.03). Pennicilin/Streptomycin antibiotics are purchased from Gibco (15140). MEM non-essential amino acids are purchased from Gibco (11140). Hank's balanced salt solution (HBSS) is purchased from Gibco (14025). Bovine serum albumin (BSA) is purchased from Sigma-Aldrich (A7906). MES low moisture is purchased from Sigma-Aldrich (M3671). HEPES is purchased from Sigma-Aldrich (H3375). Dimethyl Sulfoxide (DMSO) is purchased from EMD (MX1457-6). Complete DMEM media is prepared by adding 1 L of FBS, 100 mL of pen/strep and 110 mL of MEM non essential amino acids to 10 L of DMEM+glutamax-I. […] Caco-2 cells are seeded on HTS transwell 24-well plates purchased from Corning (3397). These polycarbonate membrane plates have a diameter of […] and pore size of 0.4 μm. The Caco-2 cells vial is thawed in a 37° C. water bath until only a small ice pellet is left. The vial is then transferred to the laminar flow hood and its exterior is extensively washed with 70% ethanol. The total content of the vial (2 mL) is transferred into a 50 mL tube containing 38 mL of complete DMEM. […] The seeding is done by the Hamilton star robotic station which is controlled with the Venus program. Each well will receive 600 μL of complete DMEM on its basolateral side and 200 μL of cells on its apical side. Each well receives 50 000 cells. The 24-well plates are then returned to an automated Liconic STX110 incubator set at 37° C., 5% CO2 and 100% humidity. The culture media for the cells is changed every two days except on weekends. These cells are maintained for a period of two weeks prior to the running of the permeability assay. Permeability assays are usually performed between day 15 and 18 after the initial seeding. […] Controls for the assay are mannitol for tight junction determination and Digoxin for efflux transporter (p-glycoprotein) expression. On the day of the assay, each compound is diluted to 10 μM in the buffer (apical for A to B). 6 μl of the 5 mM DMSO stock is added to 3 mL of the buffer in a 24-well 10 mL deep plate covered with a lid. The plate containing all the diluted compounds is spun for 10 min at 3000 rpm in a Rotanta 46 RSC centrifuge from Hettich to remove unsoluble compound. This dilution is used to add at the start of the incubation. Each compound is tested in duplicate. On the day of the assay, the culture media of the 24-well plate is removed and replaced with warm HBSS. The HBSS is then also removed and the Apical and Basolatral buffer are added to their respective side of the transwells. These steps are performed by the Hamilton Star robotic station. The plate is then placed in a 37° C. incubator and is left to equilibrate for 30 min. After 30 min of incubation a background sample (25 μL from each well) is taken from the receiver side (Basolateral for A to B), and replenished with warm buffer. These samples and all others afterwards are kept in a 96-well 1 mL plate. To start the assay, the donor compartment (apical for A to B) is emptied and replaced with new buffer containing the compound at 10 μM. Once the compounds are added, the plate is returned to the 37° C. incubator and the timer is started. In order to determine how much compound is actually added to each well, a 50 μL sample is taken from each compound dilution, this sample is refered to as the load. These steps and the following are performed by the Tecan Freedom EVO robotic station controlled via the Gemini software. For A-to-B Assay: Samples (190 μL) are taken from each basolateral (receiver) chamber at time points 0, 60, 120 and 180 min or at time points 0, 30, 60 and 90 min. From the 190 μL taken, 50 μL is transferred to the receiving plate and 140 μL is discarded.

HIV-1 = assay: C8166 HIV-1 Luciferase Assay (EC50); type: cell-based; conditions: Human immunodeficiency virus 1, C8166, 72 h
Description: C8166 HIV-1 Luciferase Assay (Ec50)
The assay used to measure inhibition of HIV replication is as described in WO 2004/050643, pages 73-75, incorporated herein by reference, with the following modifications:
Serial dilutions of HIV-1 inhibitors are prepared in complete media from DMSO stock solutions. Eleven serial dilutions of desired concentration are prepared in a 1 mL deep well titer plate (96 wells). The 12th well contains complete media with no inhibitor and serves as the positive control. All samples contain the same concentration of DMSO (<0.1% DMSO). Inhibitor is added, to triplicate wells, of a 96 well tissue culture treated clear view black microtiter plate (Corning Costar catalogue #3904). The total volume per well is 200 μL of media containing the cells and inhibitor. The last row is reserved for uninfected C8166 LTRIuc cells to serve as the background blank control and the first row is media alone.
Count C8166 LTRIuc cells and place in a minimal volume of complete RPMI 1640 in a tissue culture flask (ex. 30×10^6 cells in 10 mL media/25 cm^2 flask). Infect cells with HIV-1 at a moi of 0.005. Incubate cells for 1.5 h at 37° C. on a rotating rack in a 5% CO2 incubator. Resuspend cells in complete RPMI to give a final concentration of 25,000-cells/well. Add cells to wells of 96 well microtiter plate containing inhibitors. Add 25,000 uninfected C8166-LTRIuc cells/well in 200 μL complete RPMI to last row for background control. Incubate cells at 37° C. in 5% CO2 incubator for 3 days.
50 μL Steady Glo (luciferase substrate T112=5 hours Promega catalogue # E2520) is added to each well of the 96 well plate. The relative light units (RLU) of luciferase are determined using a luminescence plate reader. The calculated % inhibition values are used to determine EC50, slope factor (n) and maximum inhibition (Imax).

Row | Compound | Papp A→B at 10 μM [1] | EC50 (HIV-1)
1 | CC[C@@H]1C[C@H](n2c(=O)nc(-c3ccc(NC)nc3)c3oc4ccc(-c5cnn(C)c5)cc4c32)CO1 (racemic) [Compound 1037] | 8.2 ×10⁻⁶ cm/s | 10.2 nM
2 | CC[C@H]1C[C@@H](n2c(=O)nc(-c3cnn(C)c3)c3oc4ccc(-c5cnn(C)c5)nc4c32)CCO1 [Compound 1001] | 20.4 ×10⁻⁶ cm/s | 4.9 nM
3 | CC[C@H]1C[C@@H](n2c(=O)nc(-c3cnn(C)c3)c3oc4ccc(-c5cn(C)nc5C)nc4c32)CCO1 [Compound 1002] | 14.5 ×10⁻⁶ cm/s | 8.6 nM
4 | CC[C@H]1C[C@@H](n2c(=O)nc(-c3cnn(C)c3)c3oc4ccc(-c5ccn(C)n5)nc4c32)CCO1 [Compound 1003] | 22.2 ×10⁻⁶ cm/s | 6.4 nM
5 | CC[C@H]1C[C@@H](n2c(=O)nc(-c3cnn(C)c3)c3oc4ccc(-c5cncnc5)nc4c32)CCO1 [Compound 1004] | 14.1 ×10⁻⁶ cm/s | 21 nM
6 | CC[C@H]1C[C@@H](n2c(=O)nc(-c3cnn(C)c3)c3oc4ccc(-c5cccnc5)nc4c32)CCO1 [Compound 1006] | 18.1 ×10⁻⁶ cm/s | 7.4 nM
7 | CC[C@H]1C[C@@H](n2c(=O)nc(-c3cnn(C)c3)c3oc4ccc(-c5cnco5)nc4c32)CCO1 [Compound 1007] | 19.7 ×10⁻⁶ cm/s | 8.4 nM
8 | C[C@@H]1C[C@H](n2c(=O)nc(-c3cnn(C)c3)c3oc4ccc(-c5cnn(C)c5)nc4c32)C[C@H](C)O1 [Compound 1008] | 18.1 ×10⁻⁶ cm/s | 73.9 nM
9 | CC[C@H]1C[C@@H](n2c(=O)nc(-c3cnn(C)c3)c3oc4ccc(-c5cnn(C)c5)nc4c32)C[C@@H](C)O1 [Compound 1009] | 27.6 ×10⁻⁶ cm/s | 4.6 nM
10 | CC[C@H]1C[C@@H](n2c(=O)nc(-c3cnn(C)c3)c3oc4ccc(-n5cncn5)nc4c32)CCO1 [Compound 1013] | 16.8 ×10⁻⁶ cm/s | 98 nM
11 | CC[C@H]1C[C@@H](n2c(=O)nc(-c3cnn(C)c3)c3oc4ccc(-c5cn(C)cn5)nc4c32)CCO1 [Compound 1014] | 20.7 ×10⁻⁶ cm/s | 5.2 nM
12 | CC[C@H]1C[C@@H](n2c(=O)nc(-c3cnn(C)c3)c3oc4cc(C#N)c(-c5cnn(C)c5)nc4c32)CCO1 [Compound 1015] | 20.7 ×10⁻⁶ cm/s | 3 nM
13 | C[C@@H]1C[C@H](n2c(=O)nc(-c3cnn(C)c3)c3oc4cc(C#N)c(-c5cnn(C)c5)nc4c32)C[C@H](C)O1 [Compound 1016] | 15.9 ×10⁻⁶ cm/s | 89 nM
14 | CC[C@H]1C[C@@H](n2c(=O)nc(-c3cnn(C)c3)c3oc4cc(C#N)c(-c5cnn(C)c5)nc4c32)C[C@@H](C)O1 [Compound 1017] | 23.6 ×10⁻⁶ cm/s | 22 nM
15 | CCC[C@H]1C[C@@H](n2c(=O)nc(-c3cnn(C)c3)c3oc4cc(C#N)c(-c5cnn(C)c5)nc4c32)CCO1 [Compound 1018] | 19.8 ×10⁻⁶ cm/s | 22 nM
16 | CC[C@H]1C[C@@H](n2c(=O)nc(-c3cccnc3)c3oc4cc(C#N)c(-c5cnn(C)c5)nc4c32)CCO1 [Compound 1019] | 22.5 ×10⁻⁶ cm/s | 52 nM
17 | CC[C@H]1C[C@@H](n2c(=O)nc(-c3cnn(C)c3)c3oc4cc(Cl)c(-c5cnn(C)c5)nc4c32)CCO1 [Compound 1022] | 17.2 ×10⁻⁶ cm/s | 3.2 nM

Row | Compound | Papp A→B at 10 μM [1] | EC50 (HIV-1)
18 | CNc1ccc(-c2nc(=O)n(CCC3CCCO3)c3c2oc2ccc(-c4cnn(C(C)C)c4)cc23)cn1 (stereo not drawn) [Compound 1025] | 8.1 ×10⁻⁶ cm/s | 350 nM
19 | Cn1cc(-c2ccc3oc4c(-c5ccc(N6CCOCC6)nc5)nc(=O)n(CCC5CCCO5)c4c3c2)cn1 (stereo not drawn) [Compound 1026] | 7.4 ×10⁻⁶ cm/s | 27.9 nM
20 | CNc1ccc(-c2nc(=O)n(CCC3CCCO3)c3c2oc2ccc(-c4cnco4)cc23)cn1 (stereo not drawn) [Compound 1027] | 12.4 ×10⁻⁶ cm/s | 54 nM
21 | CNc1ccc(-c2nc(=O)n(CCC3CCCO3)c3c2oc2ccc(-c4cncs4)cc23)cn1 (stereo not drawn) [Compound 1028] | 19.9 ×10⁻⁶ cm/s | 50 nM
22 | CNc1ccc(-c2nc(=O)n(CCC3CCCO3)c3c2oc2c(F)cc(-c4cnco4)cc23)cn1 (stereo not drawn) [Compound 1029] | 16.1 ×10⁻⁶ cm/s | 19 nM
23 | CNc1ccc(-c2nc(=O)n(CCC3CCCO3)c3c2oc2c(F)cc(-c4cnn(C)c4)cc23)cn1 (stereo not drawn) [Compound 1030] | 6.1 ×10⁻⁶ cm/s | 10.2 nM
24 | Cn1cc(-c2cc(F)c3oc4c(-c5ccc(N6CCOCC6)nc5)nc(=O)n(CCC5CCCO5)c4c3c2)cn1 (stereo not drawn) [Compound 1031] | 6.4 ×10⁻⁶ cm/s | 14 nM
25 | CNc1ccc(-c2nc(=O)n(CCC3CCCO3)c3c2oc2cc(F)c(-c4cnn(C)c4)cc23)cn1 (stereo not drawn) [Compound 1032] | 7.7 ×10⁻⁶ cm/s | 11.9 nM
26 | Cn1cc(-c2cc3c(cc2F)oc2c(-c4ccc(N5CCC5)nc4)nc(=O)n(CCC4CCCO4)c23)cn1 (stereo not drawn) [Compound 1033] | 6.9 ×10⁻⁶ cm/s | 7.6 nM
27 | CN(C)c1ccc(-c2nc(=O)n(CCC3CCCO3)c3c2oc2cc(F)c(-c4cnn(C)c4)cc23)cn1 (stereo not drawn) [Compound 1034] | 6.8 ×10⁻⁶ cm/s | 23 nM
28 | CN(C)c1ccc(-c2nc(=O)n(CCC3CCCO3)c3c2oc2ccc(-c4cncs4)cc23)cn1 (stereo not drawn) [Compound 1035] | 11.5 ×10⁻⁶ cm/s | 9.4 nM
29 | CNc1ccc(-c2nc(=O)n(CCC3CCCCO3)c3c2oc2ccc(-c4cnn(C)c4)cc23)cn1 (stereo not drawn) [Compound 1036] | 7.6 ×10⁻⁶ cm/s | 6.8 nM
30 | C[C@@H]1C[C@H](n2c(=O)nc(-c3cnn(C)c3)c3oc4ccc(-c5cnn(C)c5)cc4c32)C[C@H](C)O1 [Compound 1039] | 16.8 ×10⁻⁶ cm/s | 36 nM
31 | CC[C@H]1C[C@@H](n2c(=O)nc(-c3cnn(C)c3)c3oc4ccc(-c5cccnc5)cc4c32)CCO1 [Compound 1040] | 19.2 ×10⁻⁶ cm/s | 12.8 nM
32 | CC[C@H]1C[C@@H](n2c(=O)nc(-c3cnn(C)c3)c3oc4ccc(-c5cnn(CC)c5)cc4c32)CCO1 [Compound 1041] | 26.9 ×10⁻⁶ cm/s | 6.6 nM
33 | CC[C@H]1C[C@@H](n2c(=O)nc(-c3cnn(C)c3)c3oc4cc(C#N)c(-c5cnn(C)c5)cc4c32)CCO1 [Compound 1049] | – | 15.1 nM
34 | CC[C@H]1C[C@@H](n2c(=O)nc(-c3ccc(NC)nc3)c3oc4ncc(-c5cnn(C)c5)cc4c32)CCO1 [Compound 1069] | – | 7.8 nM
